Reference: patent US20240132480A1, “INHIBITORS OF MYCOBACTERIUM TUBERCULOSIS LIPOAMIDE DEHYDROGENASE” (Cornell University, priority 2021, published 2024)
Where two headings read alike, the source gives them in different places.

Experiments:
Mtb Lpd = Mtb Lpd (Mycobacterium tuberculosis (strain ATCC 25618 / H37Rv), UniProt P9WHH9); assay type: biochemical
[1] = microsomes
[2] = 30 min preincubation, read-out: LPD IC50 (μM) w/ 30 min preincubation

O=C(Nc1ccc2c(c1)OCCN2C1CCOCC1)[C@@H]1CCN1S(=O)(=O)c1cc(Cl)cc2cn[nH]c12 [Example 161]
IC50 (Mtb Lpd; read-out: LPD IC50): 0.033 µM | Human Liver Microsome Stability [1]: 121 µL/min/mg

CN(CC(=O)Nc1ccn(C)c(=O)c1)S(=O)(=O)c1cc(C2CC2)cc2cn[nH]c12 [Example 35]
IC50 (Mtb Lpd; read-out: LPD IC50): 0.152 µM | Human Liver Microsome Stability [1]: 91 µL/min/mg

Cc1cc(S(=O)(=O)N(C)CC(=O)NCc2ccccc2)c2n[nH]cc2c1 [Example 49]
IC50 (Mtb Lpd; read-out: LPD IC50): 0.031 µM | Human Liver Microsome Stability [1]: 43 µL/min/mg

COc1ccc(CNC(=O)CN(C)S(=O)(=O)c2cc(C)cc3c[nH]nc23)cc1 [Example 51]
IC50 (Mtb Lpd; read-out: LPD IC50): 0.049 µM | Human Liver Microsome Stability [1]: 70 µL/min/mg

CN(CC(=O)Nc1ccc2c(c1)OCCN2C1CCOCC1)S(=O)(=O)c1cc(Cl)cc2cn[nH]c12 [Example 166]
IC50 (Mtb Lpd; read-out: LPD IC50): 0.034 µM | Human Liver Microsome Stability [1]: 122 µL/min/mg

CC(C)(CO)N1CCOc2cc(NC(=O)[C@@H]3CCN3S(=O)(=O)c3cc(C(F)F)cc4cn[nH]c34)ccc21 [Example 177]
IC50 (Mtb Lpd; read-out: LPD IC50): 0.197 µM | Human Liver Microsome Stability [1]: 177 µL/min/mg

CN(CC(=O)Nc1ccc2c(c1)OCCN2C1CCOCC1)S(=O)(=O)c1cc(Cl)cc2c(F)n[nH]c12 [Example 165]
IC50 (Mtb Lpd; read-out: LPD IC50): 0.037 µM | Human Liver Microsome Stability [1]: 162 µL/min/mg

CCN(CC(=O)Nc1ccc2c(c1)OCCN2C1CCOCC1)S(=O)(=O)c1cc(C)cc2c[nH]nc12 [Example 156]
IC50 (Mtb Lpd; read-out: LPD IC50): 0.0274 µM | Human Liver Microsome Stability [1]: 58 µL/min/mg

Cc1cc(S(=O)(=O)N2CC[C@H]2C(=O)NC2CCN(C)CC2)c2[nH]ncc2c1 [Example 129]
IC50 (Mtb Lpd; read-out: LPD IC50): 6.56 µM | Human Liver Microsome Stability [1]: 418 µL/min/mg

Cc1cc(S(=O)(=O)N2CCC2C(=O)Nc2ccc(OCCN(C)C)c(C)c2)c2[nH]c(C#N)cc2c1 (centres unmarked) [Example 207]
IC50 (Mtb Lpd; [2]): 0.06 µM | IC50 (Mtb Lpd; read-out: LPD IC50): 0.225 µM | Human Liver Microsome Stability [1]: -7 µL/min/mg

Cc1cc(S(=O)(=O)N2CC[C@H]2C(=O)Nc2ccc3c(c2)OCCO3)c2[nH]ncc2c1 [Example 39]
IC50 (Mtb Lpd; read-out: LPD IC50): 0.0237 µM | Human Liver Microsome Stability [1]: 76 µL/min/mg

Cc1cc(S(=O)(=O)N2CC[C@H]2C(=O)Nc2ccc(N3CCN(C)CC3)c(Cl)c2)c2[nH]ncc2c1 [Example 153, (S)—N-(3-chloro-4-(4-methylpiperazin-1-yl)phenyl)-1-((5-methyl-1H-indazol-7-yl)sulfonyl)azetidine-2-carboxamide]
IC50 (Mtb Lpd; read-out: LPD IC50): 0.048 µM | Human Liver Microsome Stability [1]: 113 µL/min/mg

Cc1cc(S(=O)(=O)N2CC[C@H]2C(=O)Nc2ccn(C)c(=O)c2)c2[nH]c(C#N)cc2c1 [Example 187, (S)-1-((2-cyano-5-methyl-1H-indol-7-yl)sulfonyl)-N-(1-methyl-2-oxo-1,2-dihydropyridin-4-yl)azetidine-2-carboxamide]
IC50 (Mtb Lpd; read-out: LPD IC50): 0.135 µM | Human Liver Microsome Stability [1]: -2 µL/min/mg

Cc1cc(S(=O)(=O)N2CC[C@H]2C(=O)Nc2ccc3c(c2)OCCN3C2CCOCC2)c2n[nH]cc2c1 [Example 144]
IC50 (Mtb Lpd; read-out: LPD IC50): 0.0379 µM | Human Liver Microsome Stability [1]: 166 µL/min/mg

COc1ccc(NC(=O)CN(C)S(=O)(=O)c2cc(C)cc3cc(C#N)[nH]c23)cc1Cl [Example 211, N-(3-chloro-4-methoxyphenyl)-2-((2-cyano-N,5-dimethyl-1H-indole)-7-sulfonamido)acetamide]
IC50 (Mtb Lpd; [2]): 0.02 µM | Human Liver Microsome Stability [1]: 358 µL/min/mg

CN(CC(=O)Nc1ccn(C)c(=O)c1)S(=O)(=O)c1cc(C(F)F)cc2c(F)n[nH]c12 [Example 183, 2-((5-(difluoromethyl)-3-fluoro-N-methyl-1H-indazole)-7-sulfonamido)-N-(1-methyl-2-oxo-1,2-dihydropyridin-4-yl)acetamide]
IC50 (Mtb Lpd; read-out: LPD IC50): 0.231 µM | Human Liver Microsome Stability [1]: -15 µL/min/mg

Cc1cc(S(=O)(=O)N(C)CC(=O)Nc2ccc(N3CCOCC3)c(Cl)c2)c2[nH]c(C#N)cc2c1 [Example 198]
IC50 (Mtb Lpd; read-out: LPD IC50): 0.087 µM | Human Liver Microsome Stability [1]: 137 µL/min/mg

CCCCNC(=O)CN(C)S(=O)(=O)c1cc(C)cc2cc(C#N)[nH]c12 [Example 223]
IC50 (Mtb Lpd; [2]): 0.028 µM | Human Liver Microsome Stability [1]: 62 µL/min/mg

Cc1cc(S(=O)(=O)N(C)CC(=O)Nc2ccc3c(c2)OCCN3C2COC2)c2[nH]ncc2c1 [Example 94]
IC50 (Mtb Lpd; read-out: LPD IC50): 0.0275 µM | Human Liver Microsome Stability [1]: 45 µL/min/mg

Cc1cc(S(=O)(=O)N(C)CC(=O)Nc2ccc3c(c2)OCCN3CC(C)(C)O)c2[nH]ncc2c1 [Example 146]
IC50 (Mtb Lpd; read-out: LPD IC50): 0.026 µM | Human Liver Microsome Stability [1]: 31 µL/min/mg

Cc1cc(S(=O)(=O)N(C)CC(=O)Nc2ccn3cnnc3c2)c2n[nH]cc2c1 [Example 102]
IC50 (Mtb Lpd; read-out: LPD IC50): 0.042 µM | Human Liver Microsome Stability [1]: 31 µL/min/mg

Cc1cc(S(=O)(=O)N2CC[C@@H]2C(=O)Nc2ccn(C)c(=O)c2)c2[nH]c(C#N)cc2c1 [Example 188, (R)-1-((2-cyano-5-methyl-1H-indol-7-yl)sulfonyl)-N-(1-methyl-2-oxo-1,2-dihydropyridin-4-yl)azetidine-2-carboxamide]
IC50 (Mtb Lpd; read-out: LPD IC50): 8.85 µM | Human Liver Microsome Stability [1]: 5 µL/min/mg

CCN(CC(=O)NC1=CC(=O)C(C)C=C1)S(=O)(=O)c1cc(C)cc2cn[nH]c12 (centres unmarked) [Example 45]
IC50 (Mtb Lpd; read-out: LPD IC50): 0.0268 µM | Human Liver Microsome Stability [1]: 39 µL/min/mg

O=C(Nc1ccc2c(c1)OCCN2C1CCOCC1)[C@@H]1CCN1S(=O)(=O)c1cc(C(F)F)cc2c(F)n[nH]c12 [Example 185]
IC50 (Mtb Lpd; read-out: LPD IC50): 0.183 µM | Human Liver Microsome Stability [1]: 114 µL/min/mg

Cc1cc(S(=O)(=O)N(C)CC(=O)Nc2ccn(C3CC3)c(=O)c2)c2[nH]ncc2c1 [Example 98]
IC50 (Mtb Lpd; read-out: LPD IC50): 0.093 µM | Human Liver Microsome Stability [1]: 28 µL/min/mg

CCN(CC(=O)Nc1ccc(N2CCN(C)CC2)c(Cl)c1)S(=O)(=O)c1cc(C)cc2cn[nH]c12 [Example 160]
IC50 (Mtb Lpd; read-out: LPD IC50): 0.106 µM | Human Liver Microsome Stability [1]: 107 µL/min/mg

Cc1cc(S(=O)(=O)N(C)CC(=O)Nc2ccn3ccnc3c2)c2[nH]ncc2c1 [Example 26]
IC50 (Mtb Lpd; read-out: LPD IC50): 0.0628 µM | Human Liver Microsome Stability [1]: 154 µL/min/mg

CCN(CC(=O)Nc1ccc(OC)c(Cl)c1)S(=O)(=O)c1cc(C)cc2cn[nH]c12 [Example 15, N-(3-chloro-4-methoxyphenyl)-2-((N-ethyl-5-methyl-1H-indazole)-7-sulfonamido)acetamide]
IC50 (Mtb Lpd; read-out: LPD IC50): 0.0417 µM | Human Liver Microsome Stability [1]: 528 µL/min/mg

C#CCNC(=O)[C@@H]1CCN1S(=O)(=O)c1cc(C)cc2cn[nH]c12 [Example 201]
IC50 (Mtb Lpd; read-out: LPD IC50): 0.222 µM | Human Liver Microsome Stability [1]: 14 µL/min/mg

Cc1cc(S(=O)(=O)N(C)CC(=O)Nc2ccn(C)c(=O)c2)c2[nH]nc(C)c2c1 [Example 36]
IC50 (Mtb Lpd; read-out: LPD IC50): 0.0657 µM | Human Liver Microsome Stability [1]: -26 µL/min/mg

Cc1cc(S(=O)(=O)N(C)CC(=O)Nc2ccn(C)c(=O)c2)c2[nH]ncc2c1F [Example 43, 2-((4-fluoro-N,5-dimethyl-1H-indazole)-7-sulfonamido)-N-(1-methyl-2-oxo-1,2-dihydropyridin-4-yl)acetamide]
IC50 (Mtb Lpd; read-out: LPD IC50): 0.0498 µM | Human Liver Microsome Stability [1]: 42 µL/min/mg

Cc1cc(S(=O)(=O)N(C)CC(=O)Nc2ccc3c(c2)N(C2COC2)CCO3)c2[nH]ncc2c1 [Example 169]
IC50 (Mtb Lpd; read-out: LPD IC50): 0.038 µM | Human Liver Microsome Stability [1]: 39 µL/min/mg

CNCc1n[nH]c2c(S(=O)(=O)N(C)CC(=O)Cc3ccn(C)c(=O)c3)cc(C)cc12 [Example 44]
IC50 (Mtb Lpd; read-out: LPD IC50): 0.13 µM | Human Liver Microsome Stability [1]: -2 µL/min/mg

Cc1cc(S(=O)(=O)N2CC[C@H]2C(=O)Nc2ccc3ccncc3c2)c2[nH]ncc2c1 [Example 71]
IC50 (Mtb Lpd; read-out: LPD IC50): 0.0513 µM | Human Liver Microsome Stability [1]: 132 µL/min/mg

CC(=O)Nc1cccc(NC(=O)CN(C)S(=O)(=O)c2cc(C)cc3cc(C#N)[nH]c23)c1 [Example 217]
IC50 (Mtb Lpd; [2]): 0.028 µM | Human Liver Microsome Stability [1]: 177 µL/min/mg

Cc1cc(S(=O)(=O)N2CC[C@H]2C(=O)Nc2ccc3c(c2)OCCN3C)c2[nH]ncc2c1 [Example 40]
IC50 (Mtb Lpd; read-out: LPD IC50): 0.03 µM | Human Liver Microsome Stability [1]: 78 µL/min/mg

Cc1cc(S(=O)(=O)N2CC[C@H]2C(=O)Nc2ccc3c(c2)OCCN3C2COC2)c2n[nH]cc2c1 [Example 143]
IC50 (Mtb Lpd; read-out: LPD IC50): 0.0362 µM | Human Liver Microsome Stability [1]: 84 µL/min/mg

Cc1cc(S(=O)(=O)N(C)CC(=O)Nc2ccc3cccnc3c2)c2n[nH]cc2c1 [Example 61]
IC50 (Mtb Lpd; read-out: LPD IC50): 0.0229 µM | Human Liver Microsome Stability [1]: 122 µL/min/mg

Cc1cc(NC(=O)CN(C)S(=O)(=O)c2cc(C3CC3)cc3cn[nH]c23)ccc1N1CCOCC1 [Example 34]
IC50 (Mtb Lpd; read-out: LPD IC50): 0.0067 µM | Human Liver Microsome Stability [1]: 203 µL/min/mg

Cc1cc(S(=O)(=O)N(C)CC(=O)NCC#Cc2ccccc2)c2[nH]ncc2c1 [Example 203]
IC50 (Mtb Lpd; read-out: LPD IC50): 0.043 µM | Human Liver Microsome Stability [1]: 129 µL/min/mg

O=C(Nc1ccc2c(c1)OCCN2C1CCOCC1)[C@@H]1CCN1S(=O)(=O)c1cc(Cl)cc2c(F)n[nH]c12 [Example 162]
IC50 (Mtb Lpd; read-out: LPD IC50): 0.059 µM | Human Liver Microsome Stability [1]: 91 µL/min/mg

Cc1cc(S(=O)(=O)N(C)CC(=O)Nc2ccc(C3CC3)c(Cl)c2)c2[nH]c(C#N)cc2c1 [Example 215]
IC50 (Mtb Lpd; [2]): 0.036 µM | Human Liver Microsome Stability [1]: 203 µL/min/mg

CN(CC(=O)Nc1ccc2c(c1)OCCN2C1CCOCC1)S(=O)(=O)c1cc(C2(O)CC2)cc2cn[nH]c12 [Example 174]
IC50 (Mtb Lpd; read-out: LPD IC50): 0.55 µM | Human Liver Microsome Stability [1]: 131 µL/min/mg

Cc1cc(S(=O)(=O)N2CC[C@@H](C(=O)Nc3ccc4c(c3)OCCN4C3COC3)C2)c2[nH]ncc2c1 [Example 123]
IC50 (Mtb Lpd; read-out: LPD IC50): 0.0286 µM | Human Liver Microsome Stability [1]: 23 µL/min/mg

Cc1cc(S(=O)(=O)N2CC[C@H]2C(=O)Nc2ccc3c(c2)N(C2COC2)CCO3)c2[nH]c(C#N)cc2c1 [Example 209]
IC50 (Mtb Lpd; [2]): 0.033 µM | Human Liver Microsome Stability [1]: 212 µL/min/mg

Cc1cc2c(c(S(=O)(=O)N(C)CC(=O)Nc3ccc(N4CCCCC4)c(C)c3)c1)CC=C2 [Example 11]
IC50 (Mtb Lpd; read-out: LPD IC50): 0.0341 µM | Human Liver Microsome Stability [1]: 105 µL/min/mg

O=C(Nc1ccc(N2CCOCC2)c(Cl)c1)[C@H]1CCN1S(=O)(=O)c1cc(C(F)F)cc2cn[nH]c12 [Example 191, (2R)—N-(3-chloro-4-morpholino-phenyl)-1-[[5-(difluoromethyl)-1H-indazol-7-yl]sulfonyl]azetidine-2-carboxamide]
IC50 (Mtb Lpd; read-out: LPD IC50): > 10 µM | Human Liver Microsome Stability [1]: 98 µL/min/mg
